Test results taken from BindingDB's records for doi:10.7270/Q2M043TQ (Nmmlsc, 2010).

molecular target: T1, Regulator of G-protein signaling 8 (Homo sapiens, UniProt P57771); test: small molecules altering RGS8 binding of Galphao – biochemical, multiplex bead flow cytometry, SAR compounds, SAR follow-up (AID 2307); settings: not given
T1 sequence (P57771 whole entry): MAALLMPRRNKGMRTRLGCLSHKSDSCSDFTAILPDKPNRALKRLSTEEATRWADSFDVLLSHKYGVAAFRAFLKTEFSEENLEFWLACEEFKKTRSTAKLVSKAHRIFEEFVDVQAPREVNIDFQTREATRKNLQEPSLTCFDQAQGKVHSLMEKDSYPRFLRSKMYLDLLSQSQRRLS

`O=C(Cc1csc(N2CCOCC2)n1)NN=Cc1ccc(O)c(O)c1O` [SMR000369439] and `CCN=c1scc(C)n1N=Cc1ccc(O)c(O)c1O` are within 1.5-fold of each other in EC50: 384 nM for the first, 573 nM for the second.

Going from `O=c1c2ccccc2sn1-c1ccccc1` [2-phenyl-1,2-benzothiazol-3-one] to `O=c1c2ccccc2sn1-c1ccc(S(=O)(=O)N2CCCC2)cc1` [2-(4-pyrrolidin-1-ylsulfonylphenyl)-1,2-benzothiazol-3-one], the EC50 falls from greater than 30000 nM to 29 nM.

`CN=c1scc(C)n1N=Cc1ccc(O)c(O)c1O` [(4E)-2,3-dihydroxy-4-[[(4-methyl-2-methylimino-1,3-thiazol-3-yl)amino]methylidene]cyclohexa-2,5-dien-1-one] and `CCN(CC)S(=O)(=O)c1cccc(C(=O)NN=Cc2ccc(O)c(O)c2O)c1` are within 1.5-fold of each other in EC50: 318 nM for the first, 411 nM for the second.

`Cc1cc(C)c2c(n1)CCN(CC(=O)N1CCN(c3ccccc3)CC1)C2=O` [2,4-dimethyl-6-[2-oxidanylidene-2-(4-phenylpiperazin-1-yl)ethyl]-7,8-dihydro-1,6-naphthyridin-5-one] and `Cc1cc(C)c2c(=O)n(CC(=O)N3CCN(c4ccccc4)CC3)ccc2n1` [2,4-dimethyl-6-[2-oxidanylidene-2-(4-phenylpiperazin-1-yl)ethyl]-1,6-naphthyridin-5-one] cannot be ordered by EC50: greater than 30000 nM for the first, greater than 30000 nM for the second.

First: CN1CCN(C2=C(Cl)C(=O)C(c3cnc(N4CCCCC4)s3)=C(Cl)C2=O)CC1
Second: O=C1C(Cl)=C(N2CCCCC2)C(=O)C(Cl)=C1c1cnc(N2CCCCC2)s1 [MLS000550549]
The EC50 of the first is 3.7-fold lower: 21 nM for the first, 78 nM for the second.

Going from `O=C(COc1ccccc1C(=O)NN=Cc1ccc(O)c(O)c1)NN=Cc1ccc(O)c(O)c1` [N''-[(Z)-(3-hydroxy-4-oxo-1-cyclohexa-2,5-dienylidene)methyl]-2-[2-[[(Z)-(3-hydroxy-4-oxo-1-cyclohexa-2,5-dienylidene)methyl]hydrazo]-2-oxoethoxy]benzohydrazide] to `CCN(CC)S(=O)(=O)c1cccc(-c2n[nH]c(=S)n2N=Cc2ccc(C(=O)OC)cc2)c1` [4-[(E)-[3-[3-(diethylsulfamoyl)phenyl]-5-thioxo-1H-1,2,4-triazol-4-yl]iminomethyl]benzoic acid methyl ester], the EC50 rises from 123 nM to 3130 nM (25-fold). The first is the more potent here.

Compared with `Nc1c(C(=O)NCC2CCCO2)sc2nc3c(c(-c4ccco4)c12)CC/C3=C/c1ccco1` (configuration not stated) [UNM-0000305796], `Cc1cccc(N2CCN(C(=O)CN3CCc4nc(C)cc(C)c4C3=O)CC2C)c1` (configuration not stated) [KUC103675N] is higher in EC50: 489 nM for the first, greater than 30000 nM for the second. The first is the more potent here.

Compared with `Cc1[nH]n(-c2ccccc2)c(=S)c1/C=N/c1cccc([N+](=O)[O-])c1` [(4E)-5-methyl-4-[(3-nitroanilino)methylene]-2-phenyl-2-pyrazoline-3-thione], `Cc1[nH]n(-c2ccccc2)c(=S)c1C=NCCCN=Cc1c(C)[nH]n(-c2ccccc2)c1=S` is 2.4-fold higher in EC50: 218 nM for the first, 522 nM for the second. The first is the more potent here.

Going from `Cc1cccc(N2CCN(C(=O)Cn3sc4nc(C)cc(C)c4c3=O)CC2C)c1` (configuration not stated) [2-[2-keto-2-[3-methyl-4-(m-tolyl)piperazino]ethyl]-4,6-dimethyl-isothiazolo[5,4-b]pyridin-3-one] to `Cc1cccc(N2CCN(C(=O)Cn3ccc4nc(C)cc(C)c4c3=O)CC2C)c1` (configuration not stated) [2,4-dimethyl-6-[2-[3-methyl-4-(3-methylphenyl)piperazin-1-yl]-2-oxidanylidene-ethyl]-1,6-naphthyridin-5-one], the EC50 rises from 550 nM to greater than 30000 nM.

Going from `CC(=O)OCCCNc1cc(Sc2nc3ccccc3s2)c2nonc2c1[N+](=O)[O-]` [MLS000521052] to `CCC(=O)NC(c1ccc(C)cc1)c1cc([N+](=O)[O-])c2cccnc2c1O` (configuration not stated) [MLS000553854], the EC50 rises from 86 nM to 4340 nM (50-fold). The first is the more potent here.

Compared with `CC1(C)OC(=O)C(=Cc2ccc(-c3ccc(S(N)(=O)=O)cc3)o2)C(=O)O1` [SMR000273939], `NS(=O)(=O)c1ccc(N=NCc2ccc(O)c(O)c2O)c([N+](=O)[O-])c1` [4-[[(E)-(2,3-dihydroxy-4-oxo-1-cyclohexa-2,5-dienylidene)methyl]hydrazo]-3-nitrobenzenesulfonamide] is 24-fold lower in EC50: 701 nM for the first, 29 nM for the second.

Going from `Cc1cccc(N2CCN(C(=O)COc3noc4nc(C)cc(C)c34)CC2C)c1` (configuration not stated) [2-[(4,6-dimethyl-[1,2]oxazolo[5,4-b]pyridin-3-yl)oxy]-1-[3-methyl-4-(3-methylphenyl)piperazin-1-yl]ethanone] to `Cc1cccc(N2CCN(C(=O)COc3nsc4nc(C)cc(C)c34)CC2C)c1` (configuration not stated), the EC50 falls from greater than 30000 nM to 3180 nM.

`Cc1cc(Cl)ccc1/N=c1/ssnc1Cl` [MLS000539990] and `COc1ccc(C2=CC(=O)C=CC2=O)cc1` [MLS001029846] are within 1.5-fold of each other in EC50: 127 nM for the first, 177 nM for the second.

same assay, conditions: inactive by the depositor's call

For `CCOc1ccccc1-c1c2cc(O)c(=O)cc-2oc2cc(O)c(O)cc12` [MLS000578271], the EC50 was 3680 nM.
